Tests used:
[1] = Octanol-buffer partition coefficient, log D of the compound at pH 7.4; assay type: physicochemical
Estrogen receptor = target: T1, Estrogen receptor (Homo sapiens, UniProt P03372); experiment: Agonist activity at ERalpha expressed in HEK cells co-expressing beta-lactamase after 18 hrs by beta-lactamase reporter gene assay; assay type: functional, cell-based, HEK293
T1 sequence (P03372 whole entry): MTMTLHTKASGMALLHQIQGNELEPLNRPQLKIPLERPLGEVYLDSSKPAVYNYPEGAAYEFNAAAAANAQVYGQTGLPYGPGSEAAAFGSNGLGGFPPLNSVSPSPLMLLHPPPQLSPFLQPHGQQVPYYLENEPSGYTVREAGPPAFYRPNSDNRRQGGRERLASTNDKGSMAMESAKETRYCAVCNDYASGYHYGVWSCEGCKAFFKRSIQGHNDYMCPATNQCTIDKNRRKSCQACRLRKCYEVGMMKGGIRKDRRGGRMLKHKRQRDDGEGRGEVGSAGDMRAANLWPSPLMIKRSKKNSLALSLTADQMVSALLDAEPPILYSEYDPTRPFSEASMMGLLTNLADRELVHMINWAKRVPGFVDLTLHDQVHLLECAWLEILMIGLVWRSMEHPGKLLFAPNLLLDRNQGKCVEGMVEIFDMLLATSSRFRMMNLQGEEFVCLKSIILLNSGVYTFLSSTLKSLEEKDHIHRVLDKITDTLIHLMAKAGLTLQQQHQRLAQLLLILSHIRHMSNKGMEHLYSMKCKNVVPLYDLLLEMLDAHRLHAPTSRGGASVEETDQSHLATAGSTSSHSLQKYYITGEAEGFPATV

Estrogen receptor beta [2] = target: T2, Estrogen receptor beta (Homo sapiens, UniProt Q92731); experiment: Agonist activity at ERbeta expressed in […] cells co-expressing beta-lactamase after 18 hrs by beta-lactamase reporter gene assay; assay type: functional, cell-based
T2 sequence (Q92731 whole entry): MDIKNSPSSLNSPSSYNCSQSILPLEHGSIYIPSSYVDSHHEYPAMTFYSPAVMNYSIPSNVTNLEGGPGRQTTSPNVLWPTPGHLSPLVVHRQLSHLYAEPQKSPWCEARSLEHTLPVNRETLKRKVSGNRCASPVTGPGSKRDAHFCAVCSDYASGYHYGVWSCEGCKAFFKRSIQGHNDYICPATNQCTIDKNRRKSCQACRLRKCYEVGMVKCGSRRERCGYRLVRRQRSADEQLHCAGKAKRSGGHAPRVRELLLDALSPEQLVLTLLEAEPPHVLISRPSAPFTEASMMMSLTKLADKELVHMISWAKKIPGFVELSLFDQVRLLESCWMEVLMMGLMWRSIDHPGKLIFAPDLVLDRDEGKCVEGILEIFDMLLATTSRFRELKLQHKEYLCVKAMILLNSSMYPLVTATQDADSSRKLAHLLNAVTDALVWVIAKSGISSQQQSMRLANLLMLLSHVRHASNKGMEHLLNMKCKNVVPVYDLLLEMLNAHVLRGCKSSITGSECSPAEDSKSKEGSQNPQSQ

Estrogen receptor beta [3] = target: T2, Estrogen receptor beta; experiment: Agonist activity at ERbeta expressed in […] cells co-expressing beta-lactamase at 10 uM after 18 hrs by beta-lactamase reporter gene assay relative to estradiol; assay type: functional, cell-based
[4] = target: T3, Estrogen receptor (Homo sapiens) (UniProt P03372); experiment: Agonist activity at ERalpha expressed in HEK cells co-expressing beta-lactamase at 10 uM after 18 hrs by beta-lactamase reporter gene assay relative to estradiol; assay type: functional, cell-based; conditions: HEK293
T3 sequence (whole entry): T1 sequence (P03372 whole entry)

Row | Compound | logD [1] | EC50 (Estrogen receptor) [nM] | EC50 (Estrogen receptor beta [2]) [nM] | Emax (Estrogen receptor beta [3]) [%] | Emax [4] [%]
1 | CC(O)(CN(C1CC1)S(=O)(=O)c1ccc(O)cc1)c1ccc(O)cc1 (racemic) | 2 | > 4800 | 437 | 82 | 
2 | CCCCC(O)(CN(C1CC1)S(=O)(=O)c1ccc(O)cc1)c1ccccc1 (racemic) | 3.9 | > 6510 | 65 | 36 | 82
3 | Cc1ccc(O)c(CCNS(=O)(=O)c2ccc(O)cc2)c1 |  |  | > 2400 | 73 | 
4 | C[C@@](O)(CN(C1CC1)S(=O)(=O)c1ccc(O)cc1)c1ccccc1 |  | > 4560 | 110 | < 20 | 85
5 | CC(O)(CN(C1CC1)S(=O)(=O)c1ccc(O)cc1)c1c(F)cccc1F (racemic) | 2.9 | 3800 | 51 | 45 | 75
6 | O=S(=O)(c1ccc(O)cc1)N(CCC(F)(F)F)c1ccc(O)cc1 |  | 357 | 43 | 104 | 87
7 | CC(C)N(CC(C)(O)c1ccccc1)S(=O)(=O)c1ccc(O)cc1 (racemic) | 2.9 | > 2610 | 418 | 44 | 89
8 | CC(O)(CN(C1CC1)S(=O)(=O)c1ccc(O)cc1)c1cc[nH]n1 (racemic) | 1.3 | > 10000 | 1480 | 86 | 
9 | O=S(=O)(c1ccc(O)cc1)N(CC(O)(c1ccccc1)C(F)(F)F)C1CC1 (racemic) | 3.2 | > 2680 | 14 | 43 | 66
10 | CCCCN(CC(C)(O)c1ccccc1)S(=O)(=O)c1ccc(O)cc1 (racemic) | 3.4 | > 1100 | 84 | < 30 | 82
11 | CN(CC(C)(O)c1ccccc1)S(=O)(=O)c1ccc(O)cc1 (racemic) |  | > 3200 | 1100 | 49 | 
12 | CC(O)(CN(C1CC1)S(=O)(=O)c1ccc(O)cc1)c1ccccc1 (racemic) | 2.5 | 2310 | 101 | 47 | 79
13 | C[C@](O)(CN(C1CC1)S(=O)(=O)c1ccc(O)cc1)c1ccccc1 | 2.7 | > 5400 | 79 | 48 | 107
14 | O=S(=O)(c1ccc(O)cc1)N1[C@@H]2CC[C@H]1C[C@H](CO)C2 |  | 3500 | > 3000 | 111 | 94
15 | CC(O)(CN(C1CC1)S(=O)(=O)c1ccc(O)cc1)c1ccccc1F (racemic) | 3 | > 10000 | 48 | 49 | 

Reference: ChEMBL document CHEMBL1833844, “Sulfonamides as selective oestrogen receptor β agonists” (Bioorg Med Chem Lett, 2011)
